Test results from patent publication US12472193B2, “Methods and compositions for treating and preventing respiratory related diseases and conditions with xylitol-headgroup lipid analogs” (National Jewish Health, priority 2017, dated 2025).
“Also recorded” adds a separate entry of the source.

Tested on: RSV
Test: Western blot analysis of phospholipid interference with RSV binding to HEp2 cells
Assay type: cell-based, human RSV A2 strain
Settings: 50 μg/mL lipid, MOI 2.5, 2 hr
Experimental: HEp2 cells were plated in a 48-well plate at a density of 1×10^5 per well, 48-hours prior to performing binding studies. A multiplicity of infection (MOI) of 2.5 was used and conditions of a control with no RSV, RSV alone and RSV plus 50 μg/mL of selected lipids were added to cells for a 2-hour incubation at 18° C. This lower temperature was used so that RSV would adsorb to the cell surface with minimal endocytosis. After binding, cells were washed 4 times with cold PBS to remove any unattached virus. 80 μL of SDS-PAGE loading buffer (sample buffer+protease inhibitor+DTT) was added to each well and the plate was set in boiling water for 1 minute to lyse cells and solubilize proteins. Cell lysates were recovered by scraping and pipteing and stored at −20° C. Subsequently, thawed lysates were boiled for 5 min, and proteins were resolved on 8-16% gradient Tris-SDS-polyacrylamide gels. The separated proteins were transferred to nitrocellulose membranes and subsequently incubated in blocking buffer containing 20 mM Tris-HCl buffer (pH 7.6), 137 mM NaCl, 0.1% Tween 20, and 5% nonfat milk for 1 hour. After blocking, primary RSV antibody conjugated to HRP was diluted 1:500 in blocking solution, added to the membrane and incubated overnight at 4° C. The membranes were washed with TBS containing 0.1% Tween for 30 min, replacing the buffer every 10 min. The immunoreactive protein was detected using coumaric acid and luminol reagents and exposed to film. Developed films were scanned and Image J software was used for protein quantification. Beta-Actin was used a control for amount of protein loaded.
Because binding of lipid to RSV in a biochemical assay was not a good predictor of antiviral activity, PX lipids were tested for activity preventing viral attachment to the surface of cells. HEp2 cells were plated in a 48-well plate at a density of 1×10^5 per well, 48 hours prior to viral adsorption. RSV was added to cells at multiplicity of infection (MOI) 2.5 in the absence or presence of 50 μg/mL of select xylitol lipids. […] The moderately effective antiviral, DPPX was selected and the ineffective antiviral, 14:0 DEPX was selected. Viral adsorption to cells was performed at 18° C. to minimize endocytosis. RSV was incubated with HEp2 cells for 2 hours, rotating the plate every 30 minutes. Cells were washed with cold PBS to remove unbound virus and cells were lysed and collected. Cell lysates were electrophoresed on an SDS-PAGE gel, and transferred to nitrocellulose membrane. The RSV G protein was detected with antibody and Beta-actin was used as a protein loading control. The results are summarized and quantified in FIGS. 9A and 9B. In more detail, monolayers of HEp2 cells were incubated with RSV at a stoichiometry of 2.5 infectious particles/cell, at 0° C., to prevent endocytosis of virions. Following a 2 hr incubation the monolayers were washed three times with cold saline to remove unbound virus, and then the cells were harvested in a denaturing solution. The cell extracts were subjected to electrophoresis under reducing and denaturing conditions and the separated proteins were transferred to nitrocellulose. Viral proteins were detected by immunoblotting with polyclonal anti-RSV antibody and enhanced chemiluminescence. The immunoreactive bands were normalized using actin immunoblots. The immunoreactive viral proteins were quantified using Image J software. […] In contrast, POPG (PG) inhibits viral attachment by ˜85%, and the xylitol phospholipids 14:0 DEPX, POPX, 16:1 DPPX AND 18:1 DEPX inhibit viral attachment in the range of 80-90%.

Row | Structure (SMILES) | inhibition of RSV attachment to HEp2 cells | inhibition of viral attachment to HEp2 cells [%]
1 | CCCCCCCCCCCCCCOC[C@H](COP(=O)(O)OCC(O)C(O)C(O)CO)OCCCCCCCCCCCCCC (mixture of isomers) [14:0 DEPX, sn-1-O-myristyl, sn-2-O-myristyl sn-3 glycerol phosphoxylitol] | appears to prevent viral binding to cells; also recorded: prevented RSV from binding to the cell surface | 
2 | CCCCCCC=CCCCCCCCC(=O)OCC(COP(=O)(O)OCC(O)C(O)C(O)CO)OC(=O)CCCCCCCC=CCCCCCC (mixture of isomers) [16:1 DPPX, sn-1-palmitoleoyl, sn-2-palmitoleoyl sn-3 glycerol phosphoxylitol] | prevented RSV attachment to HEp2 cells | 
3 | CCCCCCCCC=CCCCCCCCCOCC(COP(=O)(O)OCC(O)C(O)C(O)CO)OCCCCCCCCC=CCCCCCCCC (mixture of isomers) [18:1 DEPX, sn-1-O-octadecenyl, sn-2-O-octadecenyl sn-3 glycerol phosphoxylitol] | inhibit attachment; also recorded: prevented RSV attachment to HEp2 cells | 
4 | CCCCCCCCC=CCCCCCCCC(=O)OCC(COP(=O)(O)OCC(O)C(O)C(O)CO)OC(=O)CCCCCCCC=CCCCCCCCC (mixture of isomers) [DOPX, sn-1-oleoyl, sn-2-oleoyl sn-3 glycerol phosphoxylitol] | inhibit attachment | 
5 | CCCCCCCCCCCCCCCC(=O)OCC(COP(=O)(O)OCC(O)C(O)C(O)CO)OC(=O)CCCCCCCCCCCCCCC (centres unmarked) [DPPX, sn-1-palmitoyl, sn-2-palmitoyl sn-3 glycerol phosphoxylitol] | not inhibited; also recorded: did not | 
6 | CCCCCCCC/C=C\CCCCCCCC(=O)O[C@H](COC(=O)CCCCCCCCCCCCCCC)COP(=O)([O-])OCC[N+](C)(C)C [POPC, 1-palmitoyl-2-oleoyl-sn-glycero-3-phosphocholine, reference compound] | not inhibited | 
7 | CCCCCCCC/C=C\CCCCCCCC(=O)O[C@H](COC(=O)CCCCCCCCCCCCCCC)COP(=O)(O)OCC(O)CO (some centres unmarked) [POPG, palmitoyl-oleoyl-phosphatidylglycerol, reference compound] |  | ~85
8 | CCCCCCCC/C=C\CCCCCCCC(=O)O[C@H](COC(=O)CCCCCCCCCCCCCCC)COP(=O)(O)OCC(O)C(O)C(O)CO (some centres unmarked) [POPX, sn-1-palmitoyl, sn-2-oleoyly sn-3 glycerol phosphoxylitol] | prevented RSV attachment to HEp2 cells | 
